Earlier results as cited in paper PMC140124 (Biological Procedures Online, 1998).
Like-named read-outs stand apart in the source and are kept apart here.

O=S1(=O)OC(c2ccc(O)cc2)(c2ccc(O)cc2)c2ccccc21 [phenol red]
change of absorption clearance (presence of peptidase inhibitors, ref [1]): did not increase

L-tyrosyl-L-arginine [KTP]
appearance on the serosal side (absence of peptidase inhibitors, ref [2]): did not appear on the serosal side
appearance on the serosal side (presence of peptidase inhibitors such as o-phenanthrolin, tryptophan hydroxamate and bestatin, ref [2]): appeared on the serosal side

L-tyrosyl-D-arginine [D-KTP]
absorption clearance (the overall transport clearance) (rat everted jejunum, peptidase-resistant isomer, ref [2]): 0.516 µL/min/cm
